{"source": "patent US12186306B2", "about": "“Methods of treatment for cystic fibrosis” (Vertex Pharmaceuticals Incorporated, priority 2020, dated 2025)", "key": {"[1]": {"experiment": "Relative stability of solid (polymorphic) forms of Compound II", "type": "physicochemical"}, "[2]": {"tested_on": "subjects with gating mutations", "experiment": "Clinical trial: absolute change in SwCl at 12 weeks in subjects with gating mutations on stable ivacaftor treatment; safety and tolerability", "type": "in vivo, human", "settings": "for Absolute change in SwCl at Week 12: LS mean (SE): subjects with gating mutations", "description": "In a clinical trial, a comparative study was conducted on absolute changes in SwCl at 12 weeks in subjects with gating mutations where were on stable treatment with ivacaftor."}, "[3]": {"experiment": "Comparison of calcium salt hydrate forms: dissolution, solubility, exposure", "type": "physicochemical", "settings": "than the other calcium salt hydrate forms"}}, "note": "Structures can show the parent of a compound that is named as a salt.", "data": [{"compound": "CC1(C)C[C@@H]2CCCNc3cccc(n3)S(=O)(=O)NC(=O)c3ccc(-n4ccc(OCCC5C6(CC6)C56CC6)n4)nc3N1C2", "note": "[Compound II calcium salt hydrate Form D, (14S)-8-[3-(2-{Dispiro[2.0.2.1]heptan-7-yl}ethoxy)-1H-pyrazol-1-yl]-12,12-dimethyl-2λ6-thia-3,9,11,18,23-pentaazatetracyclo[17.3.1.111,14.05,10]tetracosa-1(22),5,7,9,19(23),20-hexaene-2,2,4-trione]", "values": [{"measurement": "Polymorphic form stability", "setting": "[1]; in IPA/water at water activity 0.1-0.95 from ambient temperature to 60° C.", "value": "most stable polymorphic form"}, {"measurement": "Stability among calcium salt hydrate forms", "setting": "[1]; under certain conditions, such as in mixtures of ethanol and water", "value": "most stable form of calcium salt hydrate"}]}, {"compound": "CC(C)(C)c1cc(C(C)(C)C)c(NC(=O)c2c[nH]c3ccccc3c2=O)cc1O", "note": "[Ivacaftor, reference compound]", "values": [{"measurement": "Absolute change in SwCl at Week 12: LS mean (SE)", "setting": "[2]; 150 mg q12h, N = 11, week 12", "value": 0.9}]}, {"compound": "CC1(C)C[C@@H]2CCCNc3cccc(n3)S(=O)(=O)NC(=O)c3ccc(-n4ccc(OCCC5C6(CC6)C56CC6)n4)nc3N1C2", "note": "[Compound II free Form A, (14S)-8-[3-(2-{Dispiro[2.0.2.1]heptan-7-yl}ethoxy)-1H-pyrazol-1-yl]-12,12-dimethyl-2λ6-thia-3,9,11,18,23-pentaazatetracyclo[17.3.1.111,14.05,10]tetracosa-1(22),5,7,9,19(23),20-hexaene-2,2,4-trione]", "values": [{"measurement": "Polymorphic form stability", "setting": "[1]; water activity ≤0.95 at ambient temperature", "value": "most stable polymorphic form"}]}, {"compound": "[2H]C([2H])([2H])C(c1cc(C(C)(C)C)c(NC(=O)c2c[nH]c3ccccc3c2=O)cc1O)(C([2H])([2H])[2H])C([2H])([2H])[2H]", "note": "[Compound I, N-(2-(tert-butyl)-5-hydroxy-4-(2-(methyl-d3)propan-2-yl-1,1,1,3,3,3-d6)phenyl)-4-oxo-1,4-dihydroquinoline-3-carboxamide]", "values": [{"measurement": "Safety and tolerability", "setting": "[2]; 150 mg and 250 mg for 12 weeks", "value": "generally safe and well tolerated"}, {"measurement": "SwCl compared to ivacaftor baseline", "setting": "[2]; 150 mg dose, week 12", "value": "decrease in SwCl"}, {"measurement": "Absolute change in SwCl at Week 12: LS mean difference vs Ivacaftor", "setting": "[2]; 150 mg qd vs ivacaftor 150 mg q12h, week 12", "value": 2.4}, {"measurement": "Absolute change in SwCl at Week 12: LS mean (SE)", "setting": "[2]; 150 mg qd, N = 23, week 12", "value": 3.3}, {"measurement": "SwCl at week 12 compared to the ivacaftor baseline", "setting": "[2]; 250 mg dose", "value": "improvement in SwCl"}, {"measurement": "Absolute change in SwCl at Week 12: LS mean difference vs Ivacaftor", "setting": "[2]; 250 mg qd vs ivacaftor 150 mg q12h, week 12", "value": "−7.3"}, {"measurement": "Absolute change in SwCl at Week 12: LS mean (SE)", "setting": "[2]; 250 mg qd, N = 24, week 12", "value": "−6.5"}]}, {"compound": "CC1(C)C[C@@H]2CCCNc3cccc(n3)S(=O)(=O)NC(=O)c3ccc(-n4ccc(OCCC5C6(CC6)C56CC6)n4)nc3N1C2", "note": "[Compound II calcium salt hydrate Form A, (14S)-8-[3-(2-{Dispiro[2.0.2.1]heptan-7-yl}ethoxy)-1H-pyrazol-1-yl]-12,12-dimethyl-2λ6-thia-3,9,11,18,23-pentaazatetracyclo[17.3.1.111,14.05,10]tetracosa-1(22),5,7,9,19(23),20-hexaene-2,2,4-trione]", "values": [{"measurement": "Kinetic preference among calcium salt hydrate forms", "setting": "[1]", "value": "most kinetically favored calcium salt hydrate form"}, {"measurement": "Dissolution", "setting": "[3]", "value": "higher"}, {"measurement": "Exposure", "setting": "[3]", "value": "higher"}, {"measurement": "Solubility", "setting": "[3]", "value": "higher"}]}]}
